Ends that are not written are not given here.
Legend:
[1] = system: p21; conditions: cited from earlier work
Excerpt: P21 has also shown anti‐apoptotic activity, which could contribute to antagonizing the p53‐mediated apoptotic response.

[2] = system: p21 mRNA in immortalized lymphoblastoid cells (LCLs) from healthy donors; assay: p21 mRNA RT-qPCR in lymphoblastoid cells; type: cell-based, human; conditions: 48 h
Excerpt: (§1) Human colorectal carcinoma cells HCT116 wt‐p53 (RRID: CVCL_0291) were purchased from Sigma‐Aldrich (Darmstadt, Germany). HCT116 exon two knockout TP53 (hereafter p53^−/−) were obtained from Vogelstein's Lab, LoVo (Johns Hopkins University, Baltimore, MD, USA) (RRID: CVCL_0399) from Vitiani's lab (Istituto Superiore di Sanità, Roma, Italy). HCT116 and LoVo cells were maintained in DMEM low glucose (Sigma‐Aldrich) supplemented with 10% FBS (Gibco™, Walthman, MA, USA), 1% penicillin–streptomycin (Sigma‐Aldrich), 1% L‐glutamine (Sigma‐Aldrich) at 37 °C, 5% CO2. Lymphoblastoid cells from healthy donors (LCLs) were grown in RPMI‐1640 (Sigma‐Aldrich), supplemented with 15% FBS (Gibco™), 1% penicillin–streptomycin (Sigma‐Aldrich), 1% L‐glutamine (Sigma‐Aldrich). Primary human myoblasts (Lonza, Basel, Switzerland) were grown in SkGM‐2 medium (Lonza). Cell lines were maintained at 37 °C, 5% CO2.
(§2) Gene expression was evaluated 48 h after treatment using quantitative real‐time PCR (7900HT Fast; Applied Biosystems, Foster City, CA, USA). RNA extraction was performed using TRIzol® Reagent (Invitrogen, Waltham, MA, USA). RNA (500/1000 ng from cells or mice, respectively) was reverse transcribed with SMART MMLV Reverse Transcriptase (Takara, Shiga, Japan) and subjected to PCR amplification using the SensiMix SYBR Lox‐ROX Kit (Meridian Bioscience, Cincinnati, OH, USA).

[3] = system: p21 mRNA in HCT116 cells; assay: p21 mRNA RT-qPCR in HCT116; type: cell-based, human; conditions: HCT116, 48 h; three independent experiments
Protocol: as §2

[4] = system: p21 mRNA in LoVo cells; assay: p21 mRNA RT-qPCR in LoVo; type: cell-based, human; conditions: 48 h, three independent experiments
Protocol: as §2

[5] = system: immortalized lymphoblastoid cells (LCLs) from healthy donors; assay: Viability assay of lymphoblastoid cells (LCLs); type: cell-based, human; conditions: 4 biological replicates, Pep3S 10 µM, Nutlin 2.5 and 10 µM
[6] = system: SESN2, IGF1R, STAT1 mRNA in HCT116 cells; assay: SESN2, IGF1R, STAT1 mRNA RT-qPCR in HCT116; type: cell-based, human; conditions: HCT116, 48 h
Protocol: as §2

[7] = system: p21 mRNA in shMDM4 HCT116 cells; assay: p21 mRNA in shMDM4 vs shLacZ HCT116; type: cell-based, human; conditions: doxycycline-inducible shMDM4 vs shLacZ HCT116, 48 h treatment
Protocol: ShMDM4 and shLacZ (as control) HCT116 (wt‐p53 and p53^−/−) cells were obtained by transfection of doxycycline‐inducible silencing plasmids using jetPRIME transfection reagent (Polyplus, Illkirch‐Graffenstaden, France). Cells were maintained in DMEM low glucose (Sigma‐Aldrich) supplemented with 10% FBS (Gibco™) and 1% penicillin–streptomycin (Sigma‐Aldrich). After 24 h, the cells were selected with […] puromycin (Sigma‐Aldrich). Silencing was induced with 1 μg·mL^−1 doxycycline.
as §2

[8] = system: miR-34a in LoVo cells; assay: miR-34a expression RT-qPCR in LoVo; type: cell-based, human; conditions: 48 h, two independent experiments
Protocol: (§3) For human p53 signaling pathway analysis, the RT^2 Profiler PCR Array 384 well ‘Human p53 signaling pathway’ was used, following the manufacturer's instructions (Qiagen, Venlo, The Netherlands). Differences of ≥ 1.3‐fold were used as […] criteria. The hsa‐miR‐34a expression was analyzed using the TaqMan™ MicroRNA Assay (Thermo). The results were normalized to those obtained using snRNA RNU6B. Common targets of p53 and miR‐34a were evaluated using miRGator v3.0, miRTarBase, and TargetScanHuman.

[9] = system: p53; conditions: ref [4]; cited from earlier work
Excerpt: The extent to which these additional events could be attributed to the dissociated proteins MDM4 or MDM2 remains to be ascertained. Indeed, the potential persistence of MDM2 and MDM4 binding to p53 represents a unique feature of p53 reactivating molecules. […] This is probably mediated by the binding of MDM2 to p53, which, although with reduced efficiency, controls the p53 protein levels. In ad ...

[10] = system: miR-34a in HCT116 cells; assay: miR-34a expression RT-qPCR in HCT116; type: cell-based, human; conditions: HCT116, 48 h; two independent experiments
Protocol: as §3

[11] = system: human p53 pathway target genes in HCT116 cells; assay: RT2 Profiler PCR Array Human p53 signaling pathway, HCT116; type: cell-based
Protocol: as §3

[12] = system: p21 mRNA in HCT116 xenograft tumors; assay: p21 mRNA RT-qPCR in xenograft tumors; type: in vivo, mouse; conditions: n Pep3 = 3, n Pep3S = 5
Protocol: as §2
Animal studies obtained ethical approval from the Ministry of Health (Protocol N° 79/2023‐PR) and were conducted conforming to the institutional guidelines in compliance with named Italian legislation (DL N116, GU, suppl. 40, 18‐2‐1992). Inbred BALB/c nude mice (CAnN.Cg‐Foxn1^nu/J) obtained from the CNR‐IBBC‐EMMA‐Infrafrontier animal facility were housed in two per cage in the CNR‐IBBC‐EMMA‐Infrafrontier animal house. All animals were housed under controlled lighting conditions (daily light period, 07.00–19.00 h) at 20 ± 2° C, with ad libitum access to food (Emma 23, Mucedola, Settimo Milanese, Italy) and chlorinated filtered water. […] Tumor growth was followed and analyzed by luciferase activity over time. […] Bioluminescence acquisitions were performed with a Hybrid OI/CT system (MILabs, Houten, The Netherlands), and the images were analyzed using MILABS‐OI‐PP software. […]

[13] = target: human MDM2 (Homo sapiens, UniProt Q00987); assay: in vitro affinity to MDM2 (dissociation constant); conditions: Scramble3S with spread ± 0.028, binding method not described
Chain of human MDM2 (Q00987 whole entry): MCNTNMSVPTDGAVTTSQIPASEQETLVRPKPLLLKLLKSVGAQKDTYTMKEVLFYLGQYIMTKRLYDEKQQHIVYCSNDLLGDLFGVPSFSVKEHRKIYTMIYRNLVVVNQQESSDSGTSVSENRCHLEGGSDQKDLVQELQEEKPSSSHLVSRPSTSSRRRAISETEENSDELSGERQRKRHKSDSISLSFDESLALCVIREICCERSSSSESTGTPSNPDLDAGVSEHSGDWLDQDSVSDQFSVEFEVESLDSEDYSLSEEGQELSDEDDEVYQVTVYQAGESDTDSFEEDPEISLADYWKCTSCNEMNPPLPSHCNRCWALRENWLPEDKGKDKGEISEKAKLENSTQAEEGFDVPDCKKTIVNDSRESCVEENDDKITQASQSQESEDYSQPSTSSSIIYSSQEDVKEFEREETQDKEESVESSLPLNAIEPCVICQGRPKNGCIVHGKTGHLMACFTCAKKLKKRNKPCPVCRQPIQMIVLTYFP

[14] = ref [20], cited from earlier work
Excerpt: To test Pep3S's tumor‐suppressive properties, we focused on colorectal cancer (CRC) cell lines. The frequency of the wild‐type (wt) p53 gene in CRC is approximately 40%, which offers a potential window for the therapeutic application of p53‐reactivating molecules. […] BIK levels were increased by Pep3S. […] To understand the molecular pathways underlying Pep3S activity, we analyzed differentially expressed genes (DEGs) by Pep3S and Pep3 compared to a mix of Scramble3 and Scramble3S in HCT116 cells using a p53‐transcriptional array containing 80 validated targets of the human p53 pat ...

[15] = system: human myoblasts; assay: Proliferation of human myoblasts; type: cell-based; conditions: healthy human myoblasts
Excerpt: as §1

[16] = system: HCT116 cells (wt-p53); assay: PrestoBlue viability assay, 2D HCT116; type: cell-based, human; conditions: 2D HCT116, 96 h, three independent experiments
Excerpt: as §1
Treatments (0.1% DMSO, 10 μM all peptides, 20 μM cisplatin, 10 μM Nutlin‐3a (Sigma‐Aldrich)) were administered every other day. […]
Cell viability was monitored every other day using PrestoBlue™ HS Cell Viability Reagent (Thermo Fisher Scientific). The fluorescence signal was read at 45′ (for 2D) or 1 h (for spheroids) using a spectrophotometer plate reader (Varioskan™ LUX; Thermo Fisher Scientific). Fluorescence excitation/emission: 570/610 nm.

[17] = comparative analysis, miRGator v3.0, miRTarBase, TargetScanHuman
[18] = heat map of DEGs modulated by Pep3 only

Cc1ccnc(NC(c2cccc(Cl)c2Cl)c2ccc3cccnc3c2O)c1 (centres unmarked) [MMRi64]
p21 levels ([1]; ref [21]): minimal induction of p21 followed by its strong downregulation

COc1ccc(C2=N[C@@H](c3ccc(Cl)cc3)[C@@H](c3ccc(Cl)cc3)N2C(=O)N2CCNC(=O)C2)c(OC(C)C)c1 [Nutlin‐3a]
p21 levels [2]: highly potent | p21 mRNA levels [3]: strongly induced p21 expression | p21 mRNA levels [4]: strongly induced p21 expression | cell proliferation [5]: highly potent | levels of some p53 targets by RT-qPCR ([6]; Fig. S3C,D): opposite activity by upregulating the levels of some of these targets | SESN2 mRNA level ([6]; two independent experiments): strong upregulation of SESN2 | effect of MDM4 silencing on p21 regulation [7]: ineffective in the upregulation mediated by Nutlin‐3a | miR-34a levels [8]: induced miR‐34a expression | p53 levels [9]: increase in p53 levels | miR-34a levels [10]: induced miR‐34a expression

OCc1ccc(-c2ccc(-c3ccc(CO)s3)o2)s1 [RITA]
p21 protein levels ([1]; ref (43)): caused the downregulation of p21 protein levels

Ac-KEIQLVIKVFIA-NH2 [Pep3]
shared DEGs varying significantly between Pep3 and Pep3S ([11]; HCT116): 11/16 | p21 levels in p53 array ([11]; HCT116, p53 array): not significantly altered | downregulated DEGs that are miR-34a targets, common to both peptides [11, 17]: 8 of the 10 | uniquely downregulated DEGs that are miR-34a targets [11, 17]: 4/7 | ADGRB1 expression [11, 18]: 0.64 | BAX expression [11, 18]: 0.55 | EGFR expression [11, 18]: 0.50 | FASLG expression [11, 18]: 3.64 | MCL1 expression [11, 18]: 0.59 | NFKB1 expression [11, 18]: 0.51 | PRKCA expression [11, 18]: 0.53 | PTEN expression [11, 18]: 0.59 | DEGs unique to the peptide ([11]; vs Scramble mix, HCT116): 8/33 | p21 mRNA levels [12]: Although less severe, Pep3 caused a similar decrease | p21 mRNA levels [3]: Although less severe, Pep3 caused a similar decrease | Kd [13]: 0.245 ± 0.029 nM | p21 mRNA levels [4]: Although less severe, Pep3 caused a similar decrease | DEG mRNA levels by RT-qPCR ([6]; SESN2, IGF1R, STAT1, two independent experiments): confirmed the downregulation of some of these DEGs | mediators of pro-apoptotic activity ([14]; PIG3 and BIK): mediated by the activation of the pro‐oxidant p53‐targets PIG3 and BIK | IC50 ([14]; compared with Pep3S IC50, cell line not given): 10000 nM | pro-apoptotic activity linked to oxidative stress [14]: linked to the activation of an oxidative stress response

KVFIA [Pep3S]
cell proliferation [15]: did not alter cell proliferation | Kd [13]: 0.152 ± 0.007 nM | cell proliferation [5]: ineffective in reducing p21 levels and cell proliferation | IC50 [16]: 5540 nM

VAIKF [Scramble3S]
Kd [13]: 0.447 nM

Source: publication PMC12330940, “Targeting the MDM2‐MDM4 interaction interface reveals an otherwise therapeutically active wild‐type p53 in colorectal cancer” (Molecular Oncology, 2025)
